The subject of test [1] is ECHCG. The experiment in a line: Post-emergence foliar-applied weed control, greenhouse (Example I). The class given is in vivo, Echinochloa crusgalli (L.) Beauv. The source says: (§1) Evaluation of Post-emergence Foliar-Applied Herbicidal Mixtures for Weed Control in Direct Seeded Rice
(§2) Seeds or nutlets of the desired test plant species were planted in a soil matrix prepared by mixing a loam or sandy loam soil (e.g., 28.6 percent silt, 18.8 percent clay, and 52.6 percent sand, with a pH of about 5.8 and an organic matter content of about 1.8 percent) and calcareous grit in an 80 to 20 ratio. The soil matrix was contained in plastic pots with a volume of 1 quart and a surface area of 83.6 square centimeters (cm^2). When required to ensure good germination and healthy plants, a fungicide treatment and/or other chemical or physical treatment was applied. The plants were grown for 8-22 days in a greenhouse with an approximate 14 h photoperiod which was maintained at about 29° C. during the day and 26° C. during the night. Nutrients (Peters Excel® 15-5-15 5-Ca 2-Mg and iron chelate) were applied in the irrigation solution as needed and water was added on a regular basis. Supplemental lighting was provided with overhead metal halide 1000-Watt lamps as necessary. The plants were employed for testing when they reached the first through fourth true leaf stage.
(§3) Treatments consisted of the acid or esters of 4-amino-3-chloro-5-fluoro-6-(4-chloro-2-fluoro-3-methoxy-phenyl)pyridine-2-carboxylic acid (Compound A), each formulated as an SC (suspension concentrate), and various herbicidal components alone and in combination. Forms of Compound A were applied on an acid equivalent basis.
(§4) Other herbicidal components were applied on an active ingredient basis and included 4-hydroxyphenyl pyruvate dioxygenase (HPPD)-inhibiting herbicides mesotrione formulated as Callisto®, sulcotrione formulated as Mikado®, pyrazolynate formulated as Sunbird® 10% GR, and benzobicyclon formulated as Benzobicyclon 3.5%.
(§5) Treatment requirements were calculated based upon the rates being tested, the concentration of active ingredient or acid equivalent in the formulation, and a 12 mL application volume at a rate of 187 L/ha.
(§6) For treatments comprised of formulated compounds, measured amounts of compounds were placed individually in 25 mL glass vials and diluted in a volume of 1.25% (v/v) Agri-Dex® crop oil concentrated to obtain 12× stock solutions. […] Application solutions were prepared by adding an appropriate amount of each stock solution (e.g., 1 mL) and diluted to the appropriate final concentrations with the addition of 10 mL of an aqueous mixture of 1.25% (v/v) crop oil concentrate so that the final spray solutions contained 1.25+/−0.05% (v/v) crop oil concentrate.
(§7) For treatments comprised of formulated and technical compounds, weighed amounts of the technical materials were placed individually in 25 mL glass vials and dissolved in a volume of 97:3 v/v acetone/DMSO to obtain 12× stock solutions, and measured amounts of the formulated compounds were placed individually in 25 mL glass vials and diluted in a volume of 1.5% (v/v) crop oil concentrate or water to obtain 12× stock solutions. […] Application solutions were prepared by adding an appropriate amount of each stock solution (e.g., 1 mL) and diluted to the appropriate final concentrations with the addition of an appropriate amount of an aqueous mixture of 1.5% (v/v) crop oil concentrate so that the final spray solutions contained 1.25% (v/v) crop oil concentrate. As required, additional water and/or 97:3 v/v acetone/DMSO was added to individual application solutions so that the final acetone and DMSO concentrations of the application solutions being compared were 8.1% and 0.25%, respectively.
(§8) All stock solutions and applications solutions were visually inspected for compound compatibility prior to application. Spray solutions were applied to the plant material with an overhead Mandel track sprayer equipped with a 8002E nozzles calibrated to deliver 187 L/ha over an application area of 0.503 m^2 at a spray height of 18 to 20 inches (46 to 50 cm) above average plant canopy height. […]

For test [2], the system named is ECHOR. In words: In-water applied weed control, transplanted paddy rice, greenhouse (Example II). The class given is in vivo, Echinochloa oryzoides (Ard.) Fritsch. The procedure: (§9) Evaluation of in-Water Applied Herbicidal Mixtures for Weed Control in Transplanted Paddy Rice
(§10) Weed seeds or nutlets of the desired test plant species were planted in puddled soil (mud) prepared by mixing a shredded, non-sterilized mineral soil (50.5 percent silt, 25.5 percent clay, and 24 percent sand, with a pH of about 7.6 and an organic matter content of about 2.9 percent) and water at a 1:1 volumetric ratio. The prepared mud was dispensed in 365 mL aliquots into 16-ounce (oz.) non-perforated plastic pots with a surface area of 86.59 square centimeters (cm^2) leaving a headspace of 3 centimeters (cm) in each pot. Mud was allowed to dry overnight prior to planting or transplanting. Rice seeds were planted in Sun Gro MetroMix® 306 planting mixture, which typically has a pH of 6.0 to 6.8 and an organic matter content of about 30 percent, in plastic plug trays. Seedlings at the second or third leaf stage of growth were transplanted into 840 mL of mud contained in 32-oz. non-perforated plastic pots with a surface area of 86.59 cm^2 4 days prior to herbicide application. The paddy was created by filling the headspace of the pots with 2.5 to 3 cm of water. When required to ensure good germination and healthy plants, a fungicide treatment and/or other chemical or physical treatment was applied. The plants were grown for 4-22 days in a greenhouse with an approximate 14 h photoperiod which was maintained at about 29′C during the day and 26° C. during the night. Nutrients were added as Osmocote® (19:6:12, N:P:K+ minor nutrients) at 2 g per 16-oz. pot and 4 g per 32-oz. pot. Water was added on a regular basis to maintain the paddy flood, and supplemental lighting was provided with overhead metal halide 1000-Watt lamps as necessary. The plants were employed for testing when they reached the first through fourth true leaf stage.
(§11) Treatments consisted of the acid or esters of 4-amino-3-chloro-5-fluoro-6-(4-chloro-2-fluoro-3-methoxy-phenyl)pyridine-2-carboxylic acid (compound A) each formulated as an SC (suspension concentrate) and various herbicidal components alone and in combination. Forms of compound A were applied on an acid equivalent basis.
(§12) Other herbicidal components were applied on an active ingredient basis and included 4-hydroxyphenyl pyruvate dioxygenase (HPPD)-inhibiting herbicides mesotrione formulated as Callisto®, sulcotrione formulated as Mikado®, pyrazolynate formulated as Sunbird® 10% GR, and benzobicyclon formulated as Benzobicyclon 3.5% or technical material.
(§13) Treatment requirements for each compound or herbicidal component were calculated based upon the rates being tested, the concentration of active ingredient or acid equivalent in the formulation, an application volume of 2 mL per component per pot, and an application area of 86.59 cm^2 per pot.
(§14) For formulated compounds, a measured amount was placed in an individual 100 or 200 mL glass vial and was dissolved in a volume of 1.25% (v/v) Agri-Dex® crop oil concentrate to obtain application solutions.
(§15) For technical grade compounds, a weighed amount was placed in an individual 100 to 200 mL glass vial and was dissolved in a volume of acetone to obtain concentrated stock solutions. […] The concentrated stock solutions obtained were diluted with an equivalent volume of an aqueous mixture containing 2.5% (v/v) crop oil concentrate so that the final application solutions contained 1.25% (v/v) crop oil concentrate.
(§16) Applications were made by injecting with a pipetter appropriate amounts of the application solutions, individually and sequentially, into the aqueous layer of the paddy. Control plants were treated in the same manner with the solvent blank. Applications were made so that all treated plant material received the same concentrations of acetone and crop oil concentrate.
(§17) The treated plants and control plants were placed in a greenhouse as described above and water was added as needed to maintain a paddy flood. […]

Test [3] relates to BRAPP. The experiment in a line: Post-emergence foliar-applied weed control, greenhouse (Example I). Format: in vivo.
Source text: as §1, §2, §3, §4, §5, §6, §7, §8

The test system of test [4] is ECHCO. The description is as above. Format: in vivo, Echinochloa colona (L.) Link.
Source text: as §1, §2, §3, §4, §5, §6, §7, §8

Test [5] relates to IPOHE. The description is as above. Format: in vivo, Ipomoea hederacea Jacq.
Source text: as §1, §2, §3, §4, §5, §6, §7, §8

For test [6], the system named is DIGSA. The description is as above. The class given is in vivo, Digitaria sanguinalis (L.) Scop. The following applies: 37.5 gai/ha.
Source text: as §1, §2, §3, §4, §5, §6, §7, §8

The subject of test [7] is ECHCG. In words: In-water applied weed control, transplanted paddy rice, greenhouse (Example II). The note with it: 22.5 gai/ha. Format: in vivo, Echinochloa crusgalli (L.) Beauv. The procedure: as §9, §10, §11, §12, §13, §14, §15, §16, §17
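Wherever Visual Weed Control (%) - 20 DAA IPOHE Obs is given: visual score 0 no injury to 100 complete kill versus untreated plants.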

Consider `CCCCOC(=O)c1nc(-c2ccc(Cl)c(OC)c2F)c(F)c(N)c1Cl` [Compound A n-Butyl Ester], for which the results for the “Visual Weed Control (%) - 21 DAA ECHCG Obs” value in test [1] (17.5 gae/ha) and in test [1] (35 gae/ha) were 78% and 93%, respectively. Also, the entries for the “Visual Weed Control (%) -20 DAA ECHOR Obs” value in test [2] (35 gae/ha) and in test [2] (70 gae/ha) were 35% and 40%, respectively.

On to `CS(=O)(=O)c1ccc(C(=O)C2C(=O)CCCC2=O)c(Cl)c1` [Sulcotrione, 2-[2-chloro-4-(methylsulfonyl)benzoyl]-1,3-cyclohexanedione, reference compound], for which the results for the “Visual Weed Control (%) - 20 DAA BRAPP Obs” value in test [3] (37.5 gai/ha), in test [3] (75 gai/ha) and in test [3] (150 gai/ha) were 0%, 20% and 60%, respectively. The “Visual Weed Control (%) - 20 DAA ECHCO Obs” value in test [4] (37.5 gai/ha) is on record as 15%; in test [4] (75 gai/ha), 35%; in test [4] (150 gai/ha), 95%. Further, in test [5] (37.5 gai/ha), the “Visual Control (%) - 20 DAA IPOHE Obs” value worked out at 20%. Also, the “Visual Weed Control (%) - 20 DAA IPOHE Obs” value in test [5] (37.5 gai/ha) was determined as 20%; in test [5] (75 gai/ha), 30%; in test [5] (150 gai/ha) it was 80%. In test [6], the “Visual Weed Control (%) - 20 DAA DIGSA Obs” value was 25%. Besides, the “Visual Weed Control (%) - 20 DAA ECHCG Obs” value in test [1] (37.5 gai/ha) amounted to 0%; in test [1] (75 gai/ha) it was 20%; in test [1] (150 gai/ha) it was 95%; in test [7], 0%. Also, the “Visual Weed Control (%) - 20 DAA ECHOR Obs” value in test [2] (22.5 gai/ha) is recorded as 10%.

Values taken from patent publication US8841233B2, “Herbicidal compositions comprising 4-amino-3-chloro-5-fluoro-6-(4-chloro-2-fluoro-3-methoxyphenyl) pyridine-2-carboxylic acid or a derivative thereof and 4-hydroxyphenyl-pyruvate dioxygenase (HPPD) inhibitors” (Dow Agrosciences LLC, priority 2012, dated 2014).
